Source: patent US9365619B2, “IgG-binding peptide and method for detecting and purifying IgG using same” (Otsuka Chemical Co., Ltd., priority 2011, dated 2016)
Bridge positions count the residues as written; N and C are the ends. Peptide text beside a SMILES is read from it.

Target: human IgG
Assay: Surface plasmon resonance (SPR) analysis of synthetic peptide binding to human IgG
Conditions: for Kd: SPR, synthetic peptide binding to human IgG, read-out: Kd; for affinity compared with the original peptide, in words: compared with GFc-C35-3/15; for affinity compared with the parent peptide, in words: compared with GFc-C35-3/15 (T7H, N8R)
Method: In order to narrow down the amino acid region to be studied, a peptide in which one amino acid was deleted from each end of GFc-C35 (GFc-C35-2/16) and a peptide in which two amino acids were deleted from each end of CFc-C35 (GFc-C35-3/15) were synthesized. Among these peptides, based on the GFc-C35-3/15 synthetic peptide, the effect of the introduction of amino acid mutations on affinity was evaluated. That is, the contribution of each amino acid substitution to affinity was evaluated by synthesizing peptides substituted with frequently or occasionally observed amino acids obtained from the phage libraries and subjecting the resulting synthetic peptides to binding analysis.
Based on the synthetic peptide C35A, peptides substituted with amino acids observed at high frequency in the aforementioned phage libraries were synthesized by introducing amino acid mutations, and in a similar manner to the above, their binding to human IgG was analyzed by surface plasmon resonance (SPR) analysis to evaluate the contribution of each amino acid substitution to affinity.

Kd	affinity compared with the original peptide, in words	affinity compared with the parent peptide, in words	fold increase in affinity (fold decrease in Kd value) (relative to original peptide GFc-C35-3/15)	Structure (SMILES)
0.012 µM	–	–	–	CC(C)C[C@@H]1NC(=O)[C@H](CCC(=O)O)NC(=O)CNC(=O)[C@H](CCCNC(=N)N)NC(=O)[C@H](Cc2c[nH]cn2)NC(=O)[C@H](Cc2ccc(O)cc2)NC(=O)[C@H](C)NC(=O)[C@@H](NC(=O)[C@H](CC(=O)O)NC(=O)[C@@H]2CCCN2C(=O)CN)CSSC[C@@H](C(=O)N[C@H](C(=O)N[C@@H](Cc2ccccc2)C(=O)N[C@@H](Cc2ccc(O)cc2)C(N)=O)[C@@H](C)O)NC(=O)[C@H](Cc2c[nH]c3ccccc23)NC(=O)[C@H](C(C)C)NC1=O [C35A (H17Y), GPDCAYHRGELVWCTFY] (H-GPDCAYHRGELVWCTFY-NH2; disulfide 4-14)
12 µM	–	–	–	CC[C@H](C)[C@@H]1NC(=O)[C@H](CC(C)C)NC(=O)[C@H](CC(N)=O)NC(=O)CNC(=O)[C@H](CC(N)=O)NC(=O)[C@H]([C@@H](C)O)NC(=O)[C@H](Cc2ccc(O)cc2)NC(=O)[C@H]([C@@H](C)O)NC(=O)[C@@H](NC(=O)[C@@H](N)CC(=O)O)CSSC[C@@H](C(=O)N[C@H](C(N)=O)[C@@H](C)O)NC(=O)[C@H](Cc2c[nH]c3ccccc23)NC1=O [GFc-C35-3/15 (V12I), DCTYTNGNLIWCT] (H-DCTYTNGNLIWCT-NH2; disulfide 2-12)
0.0144 µM	–	–	–	CC(C)C[C@@H]1NC(=O)[C@H](CCC(=O)O)NC(=O)CNC(=O)[C@H](CCCNC(=N)N)NC(=O)[C@H](Cc2c[nH]cn2)NC(=O)[C@H](Cc2ccc(O)cc2)NC(=O)[C@H](C)NC(=O)[C@@H](NC(=O)[C@H](CC(=O)O)NC(=O)[C@@H]2CCCN2C(=O)CN)CSSC[C@@H](C(=O)N[C@@H](CO)C(=O)N[C@@H](Cc2ccccc2)C(=O)N[C@@H](Cc2c[nH]cn2)C(N)=O)NC(=O)[C@H](Cc2c[nH]c3ccccc23)NC(=O)[C@H](C(C)C)NC1=O [C35A (T15S), GPDCAYHRGELVWCSFH] (H-GPDCAYHRGELVWCSFH-NH2; disulfide 4-14)
2 µM	–	reduced affinity	–	CC(C)C[C@@H]1NC(=O)[C@H](CC(N)=O)NC(=O)CNC(=O)[C@H](CCCNC(=N)N)NC(=O)[C@H](Cc2c[nH]cn2)NC(=O)[C@H](Cc2c[nH]c3ccccc23)NC(=O)[C@H]([C@@H](C)O)NC(=O)[C@@H](NC(=O)[C@@H](N)CC(=O)O)CSSC[C@@H](C(=O)N[C@H](C(N)=O)[C@@H](C)O)NC(=O)[C@H](Cc2c[nH]c3ccccc23)NC(=O)[C@H](C(C)C)NC1=O [GFc-C35-3/15 (T7H, N8R, Y6W), DCTWHRGNLVWCT] (H-DCTWHRGNLVWCT-NH2; disulfide 2-12)
83 µM	–	–	–	CC(C)C[C@@H]1NC(=O)[C@H](CC(N)=O)NC(=O)CNC(=O)[C@H](CC(N)=O)NC(=O)[C@H](CCCNC(=N)N)NC(=O)[C@H](Cc2ccc(O)cc2)NC(=O)[C@H]([C@@H](C)O)NC(=O)[C@@H](NC(=O)[C@@H](N)CC(=O)O)CSSC[C@@H](C(=O)N[C@H](C(N)=O)[C@@H](C)O)NC(=O)[C@H](Cc2c[nH]c3ccccc23)NC(=O)[C@H](C(C)C)NC1=O [GFc-C35-3/15 (T7R), DCTYRNGNLVWCT] (H-DCTYRNGNLVWCT-NH2; disulfide 2-12)
0.011 µM	–	–	–	CC(C)C[C@@H]1NC(=O)[C@H](CCC(=O)O)NC(=O)CNC(=O)[C@H](CCCNC(=N)N)NC(=O)[C@H](Cc2c[nH]cn2)NC(=O)[C@H](Cc2ccc(O)cc2)NC(=O)[C@H](C)NC(=O)[C@@H](NC(=O)[C@H](CC(=O)O)NC(=O)[C@@H]2CCCN2C(=O)[C@@H](N)CO)CSSC[C@@H](C(=O)N[C@H](C(=O)N[C@@H](Cc2ccccc2)C(=O)N[C@@H](Cc2ccc(O)cc2)C(N)=O)[C@@H](C)O)NC(=O)[C@H](Cc2c[nH]c3ccccc23)NC(=O)[C@H](C(C)C)NC1=O [C35A (G1S, H17Y), SPDCAYHRGELVWCTFY] (H-SPDCAYHRGELVWCTFY-NH2; disulfide 4-14)
0.27 µM	–	affinity-enhancing effect	–	CC(C)C[C@@H]1NC(=O)[C@H](CCC(=O)O)NC(=O)CNC(=O)[C@H](CCCNC(=N)N)NC(=O)[C@H](Cc2c[nH]cn2)NC(=O)[C@H](Cc2ccc(O)cc2)NC(=O)[C@H]([C@@H](C)O)NC(=O)[C@@H](NC(=O)[C@@H](N)CC(=O)O)CSSC[C@@H](C(=O)N[C@H](C(N)=O)[C@@H](C)O)NC(=O)[C@H](Cc2c[nH]c3ccccc23)NC(=O)[C@H](C(C)C)NC1=O [GFc-C35-3/15 (T7H, N8R, N10E), DCTYHRGELVWCT] (H-DCTYHRGELVWCT-NH2; disulfide 2-12)
0.0114 µM	–	–	–	CC(C)C[C@@H]1NC(=O)[C@H](CCC(=O)O)NC(=O)CNC(=O)[C@H](CCCNC(=N)N)NC(=O)[C@H](Cc2c[nH]cn2)NC(=O)[C@H](Cc2ccc(O)cc2)NC(=O)[C@H](C)NC(=O)[C@@H](NC(=O)[C@H](CC(=O)O)NC(=O)[C@@H]2CCCN2C(=O)CN)CSSC[C@@H](C(=O)N[C@H](C(=O)N[C@@H](Cc2c[nH]cn2)C(=O)N[C@@H](Cc2c[nH]cn2)C(N)=O)[C@@H](C)O)NC(=O)[C@H](Cc2c[nH]c3ccccc23)NC(=O)[C@H](C(C)C)NC1=O [C35A (F16H), GPDCAYHRGELVWCTHH] (H-GPDCAYHRGELVWCTHH-NH2; disulfide 4-14)
260 µM	greatly degreased affinity	–	–	CC(C)C[C@@H]1NC(=O)[C@H](CC(N)=O)NC(=O)CNC(=O)[C@H](CC(C)C)NC(=O)[C@H]([C@@H](C)O)NC(=O)[C@H](Cc2ccc(O)cc2)NC(=O)[C@H]([C@@H](C)O)NC(=O)[C@@H](NC(=O)[C@@H](N)CC(=O)O)CSSC[C@@H](C(=O)N[C@H](C(N)=O)[C@@H](C)O)NC(=O)[C@H](Cc2c[nH]c3ccccc23)NC(=O)[C@H](C(C)C)NC1=O [GFc-C35-3/15 (N8L), DCTYTLGNLVWCT] (H-DCTYTLGNLVWCT-NH2; disulfide 2-12)
0.0093 µM	–	–	–	CC(C)C[C@@H]1NC(=O)[C@H](CCC(=O)O)NC(=O)CNC(=O)[C@H](CCCNC(=N)N)NC(=O)[C@H](Cc2c[nH]cn2)NC(=O)[C@H](Cc2ccc(O)cc2)NC(=O)[C@H](C)NC(=O)[C@@H](NC(=O)[C@H](CC(=O)O)NC(=O)[C@@H]2CCCN2C(=O)[C@@H](N)CO)CSSC[C@@H](C(=O)N[C@H](C(=O)N[C@@H](Cc2ccccc2)C(=O)N[C@@H](Cc2c[nH]cn2)C(N)=O)[C@@H](C)O)NC(=O)[C@H](Cc2c[nH]c3ccccc23)NC(=O)[C@H](C(C)C)NC1=O [C35A (G1S), SPDCAYHRGELVWCTFH] (H-SPDCAYHRGELVWCTFH-NH2; disulfide 4-14)
8 µM	greatly increased affinity	–	approximately 18 fold	CC(C)C[C@@H]1NC(=O)[C@H](CC(N)=O)NC(=O)CNC(=O)[C@H](CCCNC(=N)N)NC(=O)[C@H]([C@@H](C)O)NC(=O)[C@H](Cc2ccc(O)cc2)NC(=O)[C@H]([C@@H](C)O)NC(=O)[C@@H](NC(=O)[C@@H](N)CC(=O)O)CSSC[C@@H](C(=O)N[C@H](C(N)=O)[C@@H](C)O)NC(=O)[C@H](Cc2c[nH]c3ccccc23)NC(=O)[C@H](C(C)C)NC1=O [GFc-C35-3/15 (N8R), DCTYTRGNLVWCT] (H-DCTYTRGNLVWCT-NH2; disulfide 2-12)
69 µM	an increase in affinity	–	–	CC(C)C[C@@H]1NC(=O)[C@H](CC(N)=O)NC(=O)CNC(=O)[C@H](CC(N)=O)NC(=O)[C@H]([C@@H](C)O)NC(=O)[C@H](Cc2ccc(O)cc2)NC(=O)[C@H]([C@@H](C)O)NC(=O)[C@@H](NC(=O)[C@@H](N)CCCNC(=N)N)CSSC[C@@H](C(=O)N[C@H](C(N)=O)[C@@H](C)O)NC(=O)[C@H](Cc2c[nH]c3ccccc23)NC(=O)[C@H](C(C)C)NC1=O [GFc-C35-3/15 (D3R), RCTYTNGNLVWCT] (H-RCTYTNGNLVWCT-NH2; disulfide 2-12)
2100 µM	greatly reduced affinity	–	–	CC(C)C[C@@H]1NC(=O)[C@H](CC(N)=O)NC(=O)CNC(=O)[C@H](CC(N)=O)NC(=O)[C@H]([C@@H](C)O)NC(=O)[C@H](Cc2ccccc2)NC(=O)[C@H]([C@@H](C)O)NC(=O)[C@@H](NC(=O)[C@@H](N)CC(=O)O)CSSC[C@@H](C(=O)N[C@H](C(N)=O)[C@@H](C)O)NC(=O)[C@H](Cc2c[nH]c3ccccc23)NC(=O)[C@H](C(C)C)NC1=O [GFc-C35-3/15 (Y6F), DCTFTNGNLVWCT] (H-DCTFTNGNLVWCT-NH2; disulfide 2-12)

Structure (SMILES)	Kd	affinity compared with the original peptide, in words	affinity compared with the parent peptide, in words	fold increase in affinity (fold decrease in Kd value) (relative to original peptide GFc-C35-3/15)
CC(C)C[C@@H]1NC(=O)[C@H](CCC(N)=O)NC(=O)CNC(=O)[C@H](CC(N)=O)NC(=O)[C@H]([C@@H](C)O)NC(=O)[C@H](Cc2ccc(O)cc2)NC(=O)[C@H]([C@@H](C)O)NC(=O)[C@@H](NC(=O)[C@@H](N)CC(=O)O)CSSC[C@@H](C(=O)N[C@H](C(N)=O)[C@@H](C)O)NC(=O)[C@H](Cc2c[nH]c3ccccc23)NC(=O)[C@H](C(C)C)NC1=O [GFc-C35-3/15 (N10Q), DCTYTNGQLVWCT] (H-DCTYTNGQLVWCT-NH2; disulfide 2-12; N-terminus and C-terminus assumed)	160 µM	almost equal affinity	–	–
CC(C)C[C@@H]1NC(=O)[C@H](CCCNC(=N)N)NC(=O)CNC(=O)[C@H](CC(N)=O)NC(=O)[C@H]([C@@H](C)O)NC(=O)[C@H](Cc2ccc(O)cc2)NC(=O)[C@H]([C@@H](C)O)NC(=O)[C@@H](NC(=O)[C@@H](N)CC(=O)O)CSSC[C@@H](C(=O)N[C@H](C(N)=O)[C@@H](C)O)NC(=O)[C@H](Cc2c[nH]c3ccccc23)NC(=O)[C@H](C(C)C)NC1=O [GFc-C35-3/15 (N10R), DCTYTNGRLVWCT] (H-DCTYTNGRLVWCT-NH2; disulfide 2-12)	42 µM	higher affinity than the original peptide	–	–
